Assay results reported in the supplement of paper PMC10307832.

Columns and labels:
Test in all cases: relative viability (nuclei count vs DMSO), 5 days (fraction); higher = more cells survive
AZ505 + Pemetrexed = compound: C1CCC(CC1)N(CCNCCC2=C3C(=C(C=C2)O)NC(=O)CO3)C(=O)CCNCCC4=CC(=C(C=C4)Cl)Cl [AZ505] + Nc1nc2[nH]cc(CCc3ccc(C(=O)N[C@@H](CCC(=O)O)C(=O)O)cc3)c2c(=O)[nH]1 [Pemetrexed] (partner 0.2 µM)
Summary of the method: (§1)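 Relative viability is defined as nuclei in treated wells over nuclei in vehicle wells. Duplicate plates were run and medians reported. Lung cancer cell lines in 1536-well plates were dosed by pin tool one day after seeding, with one drug or with a fixed anchor-drug dose plus five library-drug doses (not always all listed) in √10 steps, and nuclei were counted after 5 days.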

Dactolisib + Vorinostat = compound: Cn1c(=O)n(-c2ccc(C(C)(C)C#N)cc2)c2c3cc(-c4cnc5ccccc5c4)ccc3ncc21 [Dactolisib] + O=C(CCCCCCC(=O)Nc1ccccc1)NO [Vorinostat] (partner 1 µM)
Summary of the method: as §1

Dactolisib + Pictilisib = compound: Cn1c(=O)n(-c2ccc(C(C)(C)C#N)cc2)c2c3cc(-c4cnc5ccccc5c4)ccc3ncc21 [Dactolisib] + CS(=O)(=O)N1CCN(Cc2cc3nc(-c4cccc5[nH]ncc45)nc(N4CCOCC4)c3s2)CC1 [Pictilisib] (partner 1 µM)
Summary of the method: as §1

AZ505 + Olaparib = compound: C1CCC(CC1)N(CCNCCC2=C3C(=C(C=C2)O)NC(=O)CO3)C(=O)CCNCCC4=CC(=C(C=C4)Cl)Cl [AZ505] + O=C(c1cc(Cc2n[nH]c(=O)c3ccccc23)ccc1F)N1CCN(C(=O)C2CC2)CC1 [Olaparib] (partner 8 µM)
Summary of the method: as §1

NCI-H2405
relative viability (AZ505 + Pemetrexed; first compound 0.08 µM): 0.715
relative viability (AZ505 + Pemetrexed; first compound 0.8 µM): 0.841
relative viability (AZ505 + Pemetrexed; first compound 2.53 µM): 0.882
relative viability (AZ505 + Pemetrexed; first compound 8 µM): 0.97
relative viability (Dactolisib + Vorinostat; first compound 0.002 µM): 1.09
relative viability (Dactolisib + Vorinostat; first compound 0.006325 µM): 1.02
relative viability (Dactolisib + Vorinostat; first compound 0.02 µM): 0.839
relative viability (Dactolisib + Vorinostat; first compound 0.06325 µM): 0.391
relative viability (Dactolisib + Vorinostat; first compound 0.2 µM): 0.277
relative viability (Dactolisib + Pictilisib; first compound 0.002 µM): 0.343
relative viability (Dactolisib + Pictilisib; first compound 0.006325 µM): 0.475
relative viability (Dactolisib + Pictilisib; first compound 0.02 µM): 0.423
relative viability (Dactolisib + Pictilisib; first compound 0.06325 µM): 0.311
relative viability (Dactolisib + Pictilisib; first compound 0.2 µM): 0.278
relative viability (AZ505 + Olaparib; first compound 0.08 µM): 0.742
relative viability (AZ505 + Olaparib; first compound 0.8 µM): 0.758
relative viability (AZ505 + Olaparib; first compound 2.53 µM): 0.788
relative viability (AZ505 + Olaparib; first compound 8 µM): 0.828

NCI-H3122
relative viability (AZ505 + Pemetrexed; first compound 0.08 µM): 0.196
relative viability (AZ505 + Pemetrexed; first compound 0.253 µM): 0.197
relative viability (AZ505 + Pemetrexed; first compound 0.8 µM): 0.196
relative viability (AZ505 + Pemetrexed; first compound 2.53 µM): 0.201
relative viability (AZ505 + Pemetrexed; first compound 8 µM): 0.199
relative viability (Dactolisib + Vorinostat; first compound 0.002 µM): 1.03
relative viability (Dactolisib + Vorinostat; first compound 0.006325 µM): 0.854
relative viability (Dactolisib + Vorinostat; first compound 0.02 µM): 1.09
relative viability (Dactolisib + Vorinostat; first compound 0.06325 µM): 1.04
relative viability (Dactolisib + Vorinostat; first compound 0.2 µM): 0.671
relative viability (Dactolisib + Pictilisib; first compound 0.002 µM): 0.59
relative viability (Dactolisib + Pictilisib; first compound 0.006325 µM): 0.608
relative viability (Dactolisib + Pictilisib; first compound 0.02 µM): 0.575
relative viability (Dactolisib + Pictilisib; first compound 0.06325 µM): 0.442
relative viability (Dactolisib + Pictilisib; first compound 0.2 µM): 0.336
relative viability (AZ505 + Olaparib; first compound 0.08 µM): 0.617
relative viability (AZ505 + Olaparib; first compound 0.253 µM): 0.689
relative viability (AZ505 + Olaparib; first compound 0.8 µM): 0.618
relative viability (AZ505 + Olaparib; first compound 2.53 µM): 0.629
relative viability (AZ505 + Olaparib; first compound 8 µM): 0.622

PC-3 [JPC-3]
relative viability (AZ505 + Pemetrexed; first compound 0.08 µM): 0.97
relative viability (AZ505 + Pemetrexed; first compound 0.8 µM): 1.18
relative viability (AZ505 + Pemetrexed; first compound 2.53 µM): 1.09
relative viability (AZ505 + Pemetrexed; first compound 8 µM): 1.27
relative viability (Dactolisib + Vorinostat; first compound 0.002 µM): 0.968
relative viability (Dactolisib + Vorinostat; first compound 0.006325 µM): 0.843
relative viability (Dactolisib + Vorinostat; first compound 0.02 µM): 0.748
relative viability (Dactolisib + Vorinostat; first compound 0.06325 µM): 0.782
relative viability (Dactolisib + Vorinostat; first compound 0.2 µM): 0.426
relative viability (Dactolisib + Pictilisib; first compound 0.002 µM): 0.78
relative viability (Dactolisib + Pictilisib; first compound 0.006325 µM): 0.784
relative viability (Dactolisib + Pictilisib; first compound 0.02 µM): 0.696
relative viability (Dactolisib + Pictilisib; first compound 0.06325 µM): 0.697
relative viability (Dactolisib + Pictilisib; first compound 0.2 µM): 0.572
relative viability (AZ505 + Olaparib; first compound 0.08 µM): 0.918
relative viability (AZ505 + Olaparib; first compound 0.8 µM): 0.944
relative viability (AZ505 + Olaparib; first compound 2.53 µM): 1.01
relative viability (AZ505 + Olaparib; first compound 8 µM): 1.15

PC-14
relative viability (AZ505 + Pemetrexed; first compound 0.08 µM): 0.122
relative viability (AZ505 + Pemetrexed; first compound 0.253 µM): 0.138
relative viability (AZ505 + Pemetrexed; first compound 0.8 µM): 0.127
relative viability (AZ505 + Pemetrexed; first compound 2.53 µM): 0.146
relative viability (AZ505 + Pemetrexed; first compound 8 µM): 0.166
relative viability (Dactolisib + Vorinostat; first compound 0.002 µM): 0.767
relative viability (Dactolisib + Vorinostat; first compound 0.006325 µM): 0.681
relative viability (Dactolisib + Vorinostat; first compound 0.02 µM): 0.417
relative viability (Dactolisib + Vorinostat; first compound 0.06325 µM): 0.155
relative viability (Dactolisib + Vorinostat; first compound 0.2 µM): 0.163
relative viability (Dactolisib + Pictilisib; first compound 0.002 µM): 0.9
relative viability (Dactolisib + Pictilisib; first compound 0.006325 µM): 0.586
relative viability (Dactolisib + Pictilisib; first compound 0.02 µM): 0.412
relative viability (Dactolisib + Pictilisib; first compound 0.06325 µM): 0.196
relative viability (Dactolisib + Pictilisib; first compound 0.2 µM): 0.0762
relative viability (AZ505 + Olaparib; first compound 0.08 µM): 0.302
relative viability (AZ505 + Olaparib; first compound 0.253 µM): 0.255
relative viability (AZ505 + Olaparib; first compound 0.8 µM): 0.248
relative viability (AZ505 + Olaparib; first compound 2.53 µM): 0.324
relative viability (AZ505 + Olaparib; first compound 8 µM): 0.241

RERF-LC-KJ
relative viability (AZ505 + Pemetrexed; first compound 0.08 µM): 0.448
relative viability (AZ505 + Pemetrexed; first compound 0.253 µM): 0.454
relative viability (AZ505 + Pemetrexed; first compound 0.8 µM): 0.505
relative viability (AZ505 + Pemetrexed; first compound 2.53 µM): 0.449
relative viability (AZ505 + Pemetrexed; first compound 8 µM): 0.434
relative viability (Dactolisib + Vorinostat; first compound 0.002 µM): 0.683
relative viability (Dactolisib + Vorinostat; first compound 0.006325 µM): 0.699
relative viability (Dactolisib + Vorinostat; first compound 0.02 µM): 0.707
relative viability (Dactolisib + Vorinostat; first compound 0.06325 µM): 0.452
relative viability (Dactolisib + Vorinostat; first compound 0.2 µM): 0.542
relative viability (Dactolisib + Pictilisib; first compound 0.002 µM): 0.562
relative viability (Dactolisib + Pictilisib; first compound 0.006325 µM): 0.519
relative viability (Dactolisib + Pictilisib; first compound 0.02 µM): 0.466
relative viability (Dactolisib + Pictilisib; first compound 0.06325 µM): 0.41
relative viability (Dactolisib + Pictilisib; first compound 0.2 µM): 0.293
relative viability (AZ505 + Olaparib; first compound 0.08 µM): 0.947
relative viability (AZ505 + Olaparib; first compound 0.253 µM): 0.934
relative viability (AZ505 + Olaparib; first compound 0.8 µM): 0.995
relative viability (AZ505 + Olaparib; first compound 2.53 µM): 0.91
relative viability (AZ505 + Olaparib; first compound 8 µM): 0.842

SK-LU-1
relative viability (AZ505 + Pemetrexed; first compound 0.08 µM): 0.671
relative viability (AZ505 + Pemetrexed; first compound 0.253 µM): 0.72
relative viability (AZ505 + Pemetrexed; first compound 0.8 µM): 0.684
relative viability (AZ505 + Pemetrexed; first compound 2.53 µM): 0.799
relative viability (AZ505 + Pemetrexed; first compound 8 µM): 0.757
relative viability (Dactolisib + Vorinostat; first compound 0.002 µM): 0.766
relative viability (Dactolisib + Vorinostat; first compound 0.006325 µM): 0.697
relative viability (Dactolisib + Vorinostat; first compound 0.02 µM): 0.671
relative viability (Dactolisib + Vorinostat; first compound 0.06325 µM): 0.448
relative viability (Dactolisib + Vorinostat; first compound 0.2 µM): 0.321
relative viability (Dactolisib + Pictilisib; first compound 0.002 µM): 0.48
relative viability (Dactolisib + Pictilisib; first compound 0.006325 µM): 0.547
relative viability (Dactolisib + Pictilisib; first compound 0.02 µM): 0.484
relative viability (Dactolisib + Pictilisib; first compound 0.06325 µM): 0.432
relative viability (Dactolisib + Pictilisib; first compound 0.2 µM): 0.211
relative viability (AZ505 + Olaparib; first compound 0.08 µM): 0.268
relative viability (AZ505 + Olaparib; first compound 0.253 µM): 0.364
relative viability (AZ505 + Olaparib; first compound 0.8 µM): 0.349
relative viability (AZ505 + Olaparib; first compound 2.53 µM): 0.314
relative viability (AZ505 + Olaparib; first compound 8 µM): 0.326

SK-MES-1
relative viability (AZ505 + Pemetrexed; first compound 0.08 µM): 0.81
relative viability (AZ505 + Pemetrexed; first compound 0.253 µM): 0.909
relative viability (AZ505 + Pemetrexed; first compound 0.8 µM): 0.875
relative viability (AZ505 + Pemetrexed; first compound 2.53 µM): 0.949
relative viability (AZ505 + Pemetrexed; first compound 8 µM): 0.882
relative viability (Dactolisib + Vorinostat; first compound 0.002 µM): 0.954
relative viability (Dactolisib + Vorinostat; first compound 0.006325 µM): 1
relative viability (Dactolisib + Vorinostat; first compound 0.02 µM): 0.998
relative viability (Dactolisib + Vorinostat; first compound 0.06325 µM): 0.504
relative viability (Dactolisib + Vorinostat; first compound 0.2 µM): 0.475
relative viability (Dactolisib + Pictilisib; first compound 0.002 µM): 0.391
relative viability (Dactolisib + Pictilisib; first compound 0.006325 µM): 0.356
relative viability (Dactolisib + Pictilisib; first compound 0.02 µM): 0.297
relative viability (Dactolisib + Pictilisib; first compound 0.06325 µM): 0.337
relative viability (Dactolisib + Pictilisib; first compound 0.2 µM): 0.182
relative viability (AZ505 + Olaparib; first compound 0.08 µM): 0.682
relative viability (AZ505 + Olaparib; first compound 0.253 µM): 0.694
relative viability (AZ505 + Olaparib; first compound 0.8 µM): 0.662
relative viability (AZ505 + Olaparib; first compound 2.53 µM): 0.603
relative viability (AZ505 + Olaparib; first compound 8 µM): 0.719

SW 1573
relative viability (AZ505 + Pemetrexed; first compound 0.08 µM): 0.761
relative viability (AZ505 + Pemetrexed; first compound 0.253 µM): 0.851
relative viability (AZ505 + Pemetrexed; first compound 0.8 µM): 0.928
relative viability (AZ505 + Pemetrexed; first compound 2.53 µM): 0.869
relative viability (AZ505 + Pemetrexed; first compound 8 µM): 0.876
relative viability (Dactolisib + Vorinostat; first compound 0.002 µM): 0.571
relative viability (Dactolisib + Vorinostat; first compound 0.006325 µM): 0.588
relative viability (Dactolisib + Vorinostat; first compound 0.02 µM): 0.627
relative viability (Dactolisib + Vorinostat; first compound 0.06325 µM): 0.243
relative viability (Dactolisib + Vorinostat; first compound 0.2 µM): 0.25
relative viability (Dactolisib + Pictilisib; first compound 0.002 µM): 0.609
relative viability (Dactolisib + Pictilisib; first compound 0.006325 µM): 0.446
relative viability (Dactolisib + Pictilisib; first compound 0.02 µM): 0.405
relative viability (Dactolisib + Pictilisib; first compound 0.06325 µM): 0.35
relative viability (Dactolisib + Pictilisib; first compound 0.2 µM): 0.15
relative viability (AZ505 + Olaparib; first compound 0.08 µM): 0.391
relative viability (AZ505 + Olaparib; first compound 0.253 µM): 0.493
relative viability (AZ505 + Olaparib; first compound 0.8 µM): 0.425
relative viability (AZ505 + Olaparib; first compound 2.53 µM): 0.468
relative viability (AZ505 + Olaparib; first compound 8 µM): 0.467
